For 13 compounds, IC50, viability and Ki results are on record in ChEMBL document CHEMBL5131476, “Development of dihydropyrrolopyridinone-based PKN2/PRK2 chemical tools to enable drug discovery” (Bioorg Med Chem Lett, 2022).

Some results are limits rather than exact numbers.

The target of data set [1] is T1, Serine/threonine-protein kinase N1 (Homo sapiens, UniProt Q16512). Description: Inhibition of PKN1 (unknown origin) by TR-FRET-based tracer displacement assay.
Data set [2] in a line: Toxicity in human HeLa cells assessed as cell viability at 50 uM incubated for 24 hrs by MTT assay. The format is cell-based. The note with it: read-out: Activity.
The target in data set [3] is T1, Serine/threonine-protein kinase N1. In words: Inhibition of PKN1 (unknown origin) by TR-FRET-based tracer displacement assay dependent Cheng-Prusoff equation analysis.
Data set [4] addresses T2, Serine/threonine-protein kinase N2 (Homo sapiens, UniProt Q16513). In words: Inhibition of PKN2 (unknown origin) by TR-FRET-based tracer displacement assay dependent Cheng-Prusoff equation analysis. (Time-resolved FRET reads energy transfer from a long-lived donor to a nearby acceptor.)
Data set [5] concerns the target T2, Serine/threonine-protein kinase N2. Description: Inhibition of PKN2 (unknown origin) by TR-FRET-based tracer displacement assay.
For data set [6] the target is unchanged. In words: Inhibition of NanoLuc-PKN2 (ser646-cys984)(unknown origin) expressed in HEK293 cells in […] by cell-based NanoBRET target engagement assay.
Data set [7] shares this target. Description: Inhibition of NanoLuc-PKN2 (ser646-cys984)(unknown origin) expressed in HEK293 cells by cell-based NanoBRET target engagement assay. Background: BRET reads energy transfer from a luciferase to a nearby fluorophore.

T2 sequence (Q16513 whole entry): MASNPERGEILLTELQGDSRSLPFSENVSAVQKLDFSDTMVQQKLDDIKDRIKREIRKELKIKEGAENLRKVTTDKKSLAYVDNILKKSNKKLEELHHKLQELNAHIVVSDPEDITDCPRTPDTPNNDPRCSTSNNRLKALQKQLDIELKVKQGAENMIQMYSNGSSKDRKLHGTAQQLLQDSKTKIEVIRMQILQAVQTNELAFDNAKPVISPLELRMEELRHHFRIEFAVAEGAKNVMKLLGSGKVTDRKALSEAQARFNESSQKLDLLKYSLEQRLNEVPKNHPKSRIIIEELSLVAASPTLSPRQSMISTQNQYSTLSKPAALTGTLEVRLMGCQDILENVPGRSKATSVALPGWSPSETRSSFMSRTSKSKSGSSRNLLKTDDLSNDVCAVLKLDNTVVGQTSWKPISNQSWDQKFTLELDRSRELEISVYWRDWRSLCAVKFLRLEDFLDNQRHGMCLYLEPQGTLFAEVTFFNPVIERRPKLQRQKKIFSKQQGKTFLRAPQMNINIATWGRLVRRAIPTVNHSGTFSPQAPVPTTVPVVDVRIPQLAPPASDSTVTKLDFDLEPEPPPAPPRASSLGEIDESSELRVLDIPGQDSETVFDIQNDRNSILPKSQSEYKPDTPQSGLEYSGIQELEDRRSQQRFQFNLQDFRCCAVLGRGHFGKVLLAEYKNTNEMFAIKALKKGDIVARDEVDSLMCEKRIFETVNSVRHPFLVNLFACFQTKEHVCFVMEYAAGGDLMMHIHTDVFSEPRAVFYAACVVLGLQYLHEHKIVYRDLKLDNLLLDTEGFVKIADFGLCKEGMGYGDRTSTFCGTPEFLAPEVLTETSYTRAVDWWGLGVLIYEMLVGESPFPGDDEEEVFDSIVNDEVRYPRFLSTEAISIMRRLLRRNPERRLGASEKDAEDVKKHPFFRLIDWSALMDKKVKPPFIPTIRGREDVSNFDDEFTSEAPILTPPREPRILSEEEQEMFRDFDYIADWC
T1 sequence (Q16512 whole entry): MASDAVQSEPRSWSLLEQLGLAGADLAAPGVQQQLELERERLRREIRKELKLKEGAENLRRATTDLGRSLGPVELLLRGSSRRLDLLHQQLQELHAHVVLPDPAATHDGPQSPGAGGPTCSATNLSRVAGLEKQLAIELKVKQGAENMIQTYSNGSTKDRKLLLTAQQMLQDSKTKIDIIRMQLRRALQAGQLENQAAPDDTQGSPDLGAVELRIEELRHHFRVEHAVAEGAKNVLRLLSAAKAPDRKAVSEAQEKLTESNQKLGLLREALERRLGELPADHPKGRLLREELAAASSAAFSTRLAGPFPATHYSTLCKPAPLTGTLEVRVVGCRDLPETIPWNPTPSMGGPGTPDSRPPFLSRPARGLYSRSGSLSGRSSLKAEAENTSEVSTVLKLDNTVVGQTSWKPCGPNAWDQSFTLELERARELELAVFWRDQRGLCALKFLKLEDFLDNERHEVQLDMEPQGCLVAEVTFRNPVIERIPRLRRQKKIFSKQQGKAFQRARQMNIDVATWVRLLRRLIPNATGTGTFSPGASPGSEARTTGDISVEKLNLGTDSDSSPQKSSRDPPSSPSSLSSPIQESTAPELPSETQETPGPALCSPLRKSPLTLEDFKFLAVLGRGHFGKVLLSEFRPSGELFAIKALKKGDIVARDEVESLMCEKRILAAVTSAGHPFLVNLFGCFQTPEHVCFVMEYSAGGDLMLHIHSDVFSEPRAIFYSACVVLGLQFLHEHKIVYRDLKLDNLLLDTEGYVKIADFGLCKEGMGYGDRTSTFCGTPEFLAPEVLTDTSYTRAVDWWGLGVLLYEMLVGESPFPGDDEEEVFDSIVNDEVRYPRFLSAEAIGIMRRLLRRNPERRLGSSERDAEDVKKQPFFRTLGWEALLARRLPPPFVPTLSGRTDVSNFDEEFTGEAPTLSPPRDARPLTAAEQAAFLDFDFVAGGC

One may read the IC50 as the concentration at which inhibition is half-maximal. A lower IC50 goes with higher potency. Usually Ki stands for the dissociation constant of the complex between target and ligand, obtained from inhibition or displacement. A low value points to tighter binding. In the case of `O=C1NCCc2[nH]c(-c3ccncc3)cc21`, the 50% inhibitory concentration (IC50) in data set [1] was determined as 300 nM. In data set [2], the viability at 24 h, 50 µM is not below 70%. Moreover, the Ki in data set [3] is 150 nM.
On to `CCn1c(-c2ccncc2)cc2c1CCNC2=O`, for which the Ki in data set [4] worked out at 8 nM; in data set [3] it was 108 nM. For the same compound, the half-maximal inhibitory concentration (IC50) in data set [5] was 16 nM; in data set [6] it was 1100 nM; in data set [7], 2100 nM; in data set [1], 210 nM. The viability at 24 h, 50 µM in data set [2] was not below 70%.
For `O=C1NCCc2c1cc(-c1ccncc1)n2CCO`, the results for the Ki in data set [4] and in data set [3] were 15 nM and 220 nM, respectively. The IC50 in data set [5] was determined as 30 nM; in data set [7], 11000 nM; in data set [1], 440 nM.
`Cn1c(-c2ccncc2)cc2c1CCNC2=O`: the Ki in data set [4] stood at 130 nM; in data set [3] it was 2200 nM. The half-maximal inhibitory concentration (IC50) in data set [5] was 260 nM; in data set [1], 4500 nM.
Take `O=C1NCCc2[nH]c(-c3cccnc3)cc21`: the affinity in data set [4] corresponds to a Ki of 1600 nM. The results for the IC50 in data set [5] and in data set [1] were 3200 nM and more than 5000 nM, respectively.
`O=C1NCCc2c1cc(-c1ccncc1)n2Cc1ccccc1`: the Ki came out at 320 nM in data set [4] and 1500 nM in data set [3]. In addition, the half-maximal inhibitory concentration (IC50) in data set [5] was 640 nM; in data set [1] it was 3000 nM.
On the same counts, the results for `O=C1NC(c2ccccc2)Cc2[nH]c(-c3ccncc3)cc21` (stereo not drawn) are 25 nM, 260 nM, 50 nM and 520 nM.
`CCCN1CCc2c(cc(-c3ccncc3)n2CC)C1=O` displayed an inhibition constant (Ki) in data set [4] of 1300 nM. Besides, the 50% inhibitory concentration (IC50) in data set [5] is 2600 nM; in data set [1], more than 5000 nM.
For the compound `CCn1c(-c2ccncc2)cc2c1CCN(C)C2=O`, in data set [4], the inhibition constant Ki was 170 nM. In addition, the figures for the concentration for half-maximal inhibition (IC50) in data set [5] and in data set [1] were 350 nM and more than 5000 nM, respectively.
`CCCn1c(-c2ccncc2)cc2c1CCNC2=O`: the figures for the inhibition constant (Ki) in data set [4] and in data set [3] were 7 nM and 60 nM, respectively. For the same compound, the concentration for half-maximal inhibition (IC50) in data set [5] is 15 nM; in data set [7], 2800 nM; in data set [1] it was 120 nM. Besides, the viability at 24 h, 50 µM in data set [2] is not below 70%.
In turn, `c1cc(-c2cc3c([nH]2)CCNC3)ccn1` displayed a Ki in data set [4] of 1100 nM. The 50% inhibitory concentration (IC50) in data set [5] is 2200 nM; in data set [1], more than 5000 nM.
As to `CC(C)n1c(-c2ccncc2)cc2c1CCNC2=O`, the Ki in data set [4] came out at 70 nM; in data set [3], 920 nM. Also, the figures for the half-inhibitory concentration (IC50) in data set [5] and in data set [1] were 140 nM and 1840 nM, respectively.
As to `O=C1CCCc2[nH]c(-c3ccncc3)cc21`, the Ki in data set [4] came to 30 nM; in data set [3] it was 650 nM. Also, the figures for the IC50 in data set [5] and in data set [1] were 60 nM and 1300 nM, respectively.
